Results reported in publication PMC12263422, “Cryo-EM structure of the human THIK-1 K2P K^+ channel reveals a lower Y gate regulated by lipids and anesthetics” (Nature Structural & Molecular Biology, 2025).
Where “and” joins values, the source holds several entries; their conditions need not be identical. Identical values can stand only once. Like-named read-outs stand apart in the source and are kept apart here.

Experiments:
Assay type in all cases: cell-based
THIK-1 R258A = molecular target: T1, THIK-1 R258A (Homo sapiens, UniProt Q9HB14, R258A); assay: Inside-out excised patch recordings, oocytes, THIK-1 R258A mutant (lipid activation); conditions: read-out: Linoleic acid EC50
T1 construct: expressed in transfected cells; host or cells: Xenopus oocytes (mRNA injection)
T1 sequence (Q9HB14 whole entry R258A): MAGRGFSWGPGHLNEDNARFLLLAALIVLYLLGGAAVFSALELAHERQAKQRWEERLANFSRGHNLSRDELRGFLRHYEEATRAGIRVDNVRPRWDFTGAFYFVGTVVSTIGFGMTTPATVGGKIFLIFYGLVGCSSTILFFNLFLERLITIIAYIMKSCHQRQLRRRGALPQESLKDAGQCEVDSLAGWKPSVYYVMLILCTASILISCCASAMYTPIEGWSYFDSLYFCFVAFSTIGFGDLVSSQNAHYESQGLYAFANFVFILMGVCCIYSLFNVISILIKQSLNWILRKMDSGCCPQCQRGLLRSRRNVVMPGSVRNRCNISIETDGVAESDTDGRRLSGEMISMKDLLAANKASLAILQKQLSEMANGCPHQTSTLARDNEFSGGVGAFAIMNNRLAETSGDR
Description: Supplement 41594_2025_1497_MOESM2_ESM.xlsx, sheet "ExtData_Fig_S5f" | column: Linoleic acid EC50 (µM); R258A

[1] = molecular target: T2, R87D THIK-1 single channels (Homo sapiens, UniProt Q9HB14, R87D); assay: Single-channel excised patch recordings of R87D THIK-1 at -100 mV with halothane
T2 construct: expressed in transfected cells; host or cells: Xenopus oocytes (mRNA injection)
T2 sequence (Q9HB14 whole entry R87D): as the sequence (Q9HB14 whole entry R258A) above, with R87D, A258R counted along it
Method: Two-electrode voltage–clamp (TEVC) studies were performed in Xenopus oocytes. All animal use conformed to the Guide for the Care and Use of Laboratory Animals (NIH Publication 85–23), and all experiments using Xenopus toads were approved by the local ethics panels. Oocytes were stored at 17 °C in ND96 recording solution composed of (in mM): 96 NaCl, 2 KCl, 1.8 CaCl2, 1 MgCl2, 5 HEPES (pH 7.5 adjusted with NaOH and HCl), supplemented with Na-pyruvate (275 mg L^–1), theophylline (90 mg L^–1) and gentamicin (50 mg L^–1). Oocytes were injected with 1 ng mRNA for WT or mutant channels, and were incubated for 24–48 h at 17 °C. Two-electrode voltage clamp recordings were then performed as previously described[42],[43]. […] Currents were recorded with an EPC10 amplifier (HEKA Electronics) and sampled at 10 kHz or higher, with filtering set to 3 kHz (–3 dB) or higher, as appropriate for sampling rate. For measurements of GPCR activation, whole-cell currents were recorded for THIK-1 in transiently transfected HEK-293 cells. […] Single-channel currents were recorded with an Axopatch 200B amplifier through a Digidata 1440A digitizer (Molecular Devices). Data were filtered at 2 kHz and recorded at a 200-kHz sampling rate with the program Clampex (Molecular Devices). […]

THIK-1 S136A = molecular target: T3, THIK-1 S136A (Homo sapiens, UniProt Q9HB14, S136A); assay: Inside-out excised patch recordings, oocytes, THIK-1 S136A mutant; conditions: read-out: TPenA IC50
T3 construct: expressed in transfected cells; host or cells: Xenopus oocytes (mRNA injection)
T3 sequence (Q9HB14 whole entry S136A): as the sequence (Q9HB14 whole entry R258A) above, with S136A, A258R counted along it
Description: Supplement 41594_2025_1497_MOESM2_ESM.xlsx, sheet "ExtData_Fig_S2c" | column: Normalized currents

**Q.** What does the source list for `CCCCC/C=C\C/C=C\CCCCCCCC(=O)O` [linoleic acid]?
**A.** EC50 (THIK-1 R258A; individual recordings): 24.9 µM and 30.3 µM and 69.4 µM and 74.3 µM and 47.4 µM and 62.2 µM and 21.9 µM and 23.3 µM and 47.9 µM and 30 µM; EC50 (THIK-1 R258A; mean): 43.2 µM

**Q.** With `FC(F)(F)C(Cl)Br` (stereo not drawn) [halothane] as the molecule, how does the decrease in activity ([1]; 0.4% halothane) read?
**A.** 30%

**Q.** What about the decrease in activity ([1]; 1% halothane) of the same molecule?
**A.** 75%

**Q.** How did the IC50 (THIK-1 S136A; individual recordings) turn out when `CCCCC[N+](CCCCC)(CCCCC)CCCCC` [TPenA, tetrapentylammonium] was run?
**A.** 102 µM and 173 µM and 396 µM and 375 µM and 349 µM and 120 µM and 192 µM

**Q.** What about the IC50 (THIK-1 S136A; mean) of the same molecule?
**A.** 244 µM
